Drawing on patent publication US10251394B2, “Molecules having pesticidal utility, and intermediates, compositions, and processes, related thereto” (Dow AgroSciences LLC, priority 2016, dated 2019), this text covers pest or weed control and mortality for 17 compounds.

Experiment [1] relates to Cabbage Looper (Trichoplusia ni). The experiment can be described thus: Bioassay on Cabbage Looper (CL), 128-well diet tray assay. The format is in vivo. The settings on record: for pest or weed control at 50 µg/cm2: Cabbage Looper, Table ABC, read-out: CL rating. On the procedure: (§1) Example A: Bioassays on Beet Armyworm (Spodoptera Exigua, LAPHEG) (“BAW”), Corn Earworm (Helicoverpa Zea, HELIZE) (“CEW”), and Cabbage Looper (Trichoplusia Ni, TRIPNI) (“CL”)
(§2) Certain molecules disclosed in this document were tested against BAW, CEW, and CL using procedures described in the following examples. In the reporting of the results, the “BAW, CEW, & CL Rating Table” was used (See Table Section).
Bioassays on CL were conducted using a 128-well diet tray assay. One to five second instar CL larvae were placed in each well (3 mL) of the diet tray that had been previously filled with 1 mL of artificial diet to which 50 μg/cm^2 of the test molecule (dissolved in 50 μL of 90:10 acetone-water mixture) had been applied (to each of eight wells) and then allowed to dry. Trays were covered with a clear self-adhesive cover and held at 25° C., 14:10 light-dark for five to seven days. Percent mortality was recorded for the larvae in each well; activity in the eight wells was then averaged. The results are indicated in the table entitled “Table ABC: Biological Results” (See Table Section).
(§3) Bioassays on BAW and CL were conducted according to the procedures outlined in Example A: Bioassays on Beet Armyworm (“BAW”) and Cabbage Looper (“CL”) using the indicated concentrations.

The subject of experiment [2] is Beet Armyworm (Spodoptera exigua). Nature of the experiment: Bioassay on Beet Armyworm (BAW), 128-well diet tray assay. It is filed as in vivo. The following applies: for pest or weed control at 50 µg/cm2: Beet Armyworm, Table ABC, read-out: BAW rating. On the procedure: as §1, §2
Bioassays on BAW were conducted using a 128-well diet tray assay. One to five second instar BAW larvae were placed in each well (3 mL) of the diet tray that had been previously filled with 1 mL of artificial diet to which 50 μg/cm^2 of the test molecule (dissolved in 50 μL of 90:10 acetone-water mixture) had been applied (to each of eight wells) and then allowed to dry. Trays were covered with a clear self-adhesive cover and held at 25° C., 14:10 light-dark for five to seven days. Percent mortality was recorded for the larvae in each well; activity in the eight wells was then averaged. The results are indicated in the table entitled “Table ABC: Biological Results” (See Table Section).
as §3

For `C[C@@H](NC(=O)c1ccc(/C(F)=C/C(c2cc(Cl)cc(C(F)(F)F)c2)C(F)(F)F)cc1C(F)(F)F)C(=O)NCC(F)(F)F` (stereo partly drawn) [PF42, 4-((Z)-3-(3-Chloro-5-(trifluoromethyl)phenyl)-1,4,4,4-tetrafluorobut-1-en-1-yl)-N-((1R)-1-oxo-1-((2,2,2-trifluoroethyl)amino)propan-2-yl)-2-(trifluoromethyl)benzamide], the pest or weed control at 50 µg/cm2 in experiment [1] and in experiment [2] was 50 to 100% each time.

For `C[C@@H](NC(=O)c1ccc(/C(F)=C/C(c2cc(F)c(F)c(Cl)c2)C(F)(F)F)cc1C(F)(F)F)C(=O)NCC(F)(F)F` (stereo partly drawn) [F154, 4-((Z)-3-(3-Chloro-4,5-difluorophenyl)-1,4,4,4-tetrafluorobut-1-en-1-yl)-N—((R)-1-oxo-1-((2,2,2-trifluoroethyl)amino)propan-2-yl)-2-(trifluoromethyl)benzamide], the pest or weed control at 50 µg/cm2 in experiment [1] and in experiment [2] was 50 to 100% in each case.

For the compound `C[C@@H](NC(=O)c1ccc(/C(F)=C/C(c2cc(Cl)c(Cl)c(Cl)c2)C(F)(F)F)cc1C(F)(F)F)C(=O)N(C)CC(F)(F)F` (stereo partly drawn) [F13, N—((R)-1-(Methyl(2,2,2-trifluoroethyl)amino)-1-oxopropan-2-yl)-4-((Z)-1,4,4,4-tetrafluoro-3-(3,4,5-trichlorophenyl)but-1-en-1-yl)-2-(trifluoromethyl)benzamide], the pest or weed control at 50 µg/cm2 in experiment [1] and in experiment [2] was 50 to 100% throughout.

On to `C[C@@H](NC(=O)c1ccc(/C(F)=C/C(c2cc(Cl)c(Cl)c(Cl)c2)C(F)(F)F)cc1C(F)(F)F)C(=O)N(O)CC(F)(F)F` (stereo partly drawn) [F169, N—((R)-1-(Hydroxy(2,2,2-trifluoroethyl)amino)-1-oxopropan-2-yl)-4-((Z)-1,4,4,4-tetrafluoro-3-(3,4,5-trichlorophenyl)but-1-en-1-yl)-2-(trifluoromethyl)benzamide], for which the pest or weed control at 50 µg/cm2 in experiment [1] and in experiment [2] was 50 to 100% throughout.

In general, mortality refers to the share of the test organisms that died. With `O=C(CNC(=O)c1ccc(/C(F)=C/C(c2cc(Cl)c(Cl)c(Cl)c2)C(F)(F)F)cc1)NCC(F)(F)F` (centres unmarked) [FC1, (Z)—N-(2-Oxo-2-((2,2,2-trifluoroethyl)amino)ethyl)-4-(1,4,4,4-tetrafluoro-3-(3,4,5-trichlorophenyl)but-1-en-1-yl)benzamide], the mortality at 0.05 µg/cm2 in experiment [1] (168 h, 0.05 μg/cm^2 on artificial diet, second instar larvae, five to seven days, read-out: CL Percent control (or mortality)) was 0%; in experiment [2] (168 h, 0.05 μg/cm^2 on artificial diet, second instar larvae, five to seven days, read-out: BAW Percent control (or mortality)), 0%. Further, the mortality at 0.5 µg/cm2 in experiment [1] (168 h, 0.5 μg/cm^2 on artificial diet, second instar larvae, five to seven days, read-out: CL Percent control (or mortality)) came to 100%; in experiment [2] (168 h, 0.5 μg/cm^2 on artificial diet, second instar larvae, five to seven days, read-out: BAW Percent control (or mortality)) it was 100%. In addition, the mortality at 5 µg/cm2 in experiment [1] (168 h, 5 μg/cm^2 on artificial diet, second instar larvae, five to seven days, read-out: CL Percent control (or mortality)) was found to be 100%; in experiment [2] (168 h, 5 μg/cm^2 on artificial diet, second instar larvae, five to seven days, read-out: BAW Percent control (or mortality)), 100%.

Turning to `Cc1cc(/C(F)=C/C(c2cc(Cl)c(Cl)c(Cl)c2)C(F)(F)F)ccc1C(=O)NC1(C(=O)NCC(F)(F)F)CC1` (centres unmarked) [F8, (Z)-2-Methyl-4-(1,4,4,4-tetrafluoro-3-(3,4,5-trichlorophenyl)but-1-en-1-yl)-N-(1-((2,2,2-trifluoroethyl)carbamoyl)cyclopropyl)benzamide], the pest or weed control at 50 µg/cm2 in experiment [1] and in experiment [2] was 50 to 100% in each case.

With `CC#Cc1cc(C(/C=C(\F)c2ccc(C(=O)N[C@H](C)C(=O)NCC(F)(F)F)c(C(F)(F)F)c2)C(F)(F)F)cc(Cl)c1Cl` (stereo partly drawn) [F190, 4-((Z)-3-(3,4-Dichloro-5-(prop-1-yn-1-yl)phenyl)-1,4,4,4-tetrafluorobut-1-en-1-yl)-N—((R)-1-oxo-1-((2,2,2-trifluoroethyl)amino)propan-2-yl)-2-(trifluoromethyl)benzamide], the pest or weed control at 50 µg/cm2 in experiment [1] and in experiment [2] was 50 to 100% in each case.

Consider `O=C(N[C@@H]1CON(CC(F)(F)F)C1=O)c1ccc(/C(F)=C/C(c2ccc(F)c(C(F)(F)F)c2)C(F)(F)F)cc1C(F)(F)F` (stereo partly drawn) [F150, N—((R)-3-Oxo-2-(2,2,2-trifluoroethyl)isoxazolidin-4-yl)-4-((2)-1,4,4,4-tetrafluoro-3-(4-fluoro-3-(trifluoromethyl)phenyl)but-1-en-1-yl)-2-(trifluoromethyl)benzamide], for which the pest or weed control at 50 µg/cm2 in experiment [1] and in experiment [2] was 50 to 100% throughout.

In the case of `C[C@@H](NC(=O)c1ccc(/C(F)=C/C(c2cc(Cl)cc(C#CC(C)(C)C)c2)C(F)(F)F)cc1C(F)(F)F)C(=O)NCC(F)(F)F` (stereo partly drawn) [F212, 4-((Z)-3-(3-Chloro-5-(3,3-dimethylbut-1-yn-1-yl)phenyl)-1,4,4,4-tetrafluorobut-1-en-1-yl)-N—((R)-1-oxo-1-((2,2,2-trifluoroethyl)amino)propan-2-yl)-2-(trifluoromethyl)benzamide], the pest or weed control at 50 µg/cm2 in experiment [1] and in experiment [2] was 50 to 100% in each case.

On to `CCC(F)(F)C(/C=C(\F)c1ccc(C(=O)NC2(C(=O)NCC(F)(F)F)CC2)c(C(F)(F)F)c1)c1cc(Cl)c(Cl)c(Cl)c1` (centres unmarked) [F88, (Z)-4-(1,4,4-Trifluoro-3-(3,4,5-trichlorophenyl)hex-1-en-1-yl)-N-(1-((2,2,2-trifluoroethyl)carbamoyl)cyclopropyl)-2-(trifluoromethyl)benzamide], for which the pest or weed control at 50 µg/cm2 in experiment [1] and in experiment [2] was 50 to 100% in each case.

Consider `C=CCNC(=O)[C@@H](C)NC(=O)c1ccc(/C(F)=C/C(c2cc(Cl)c(Cl)c(Cl)c2)C(F)(F)F)cc1C` (stereo partly drawn) [F14, N—((R)-1-(Allylamino)-1-oxopropan-2-yl)-2-methyl-4-((Z)-1,4,4,4-tetrafluoro-3-(3,4,5-trichlorophenyl)but-1-en-1-yl)benzamide], for which the pest or weed control at 50 µg/cm2 in experiment [1] and in experiment [2] was 50 to 100% each time.

As for `CC(C)(NC(=O)c1ccc(/C(F)=C/C(c2cc(Cl)c(Cl)c(Cl)c2)C(F)(F)F)cc1C(F)(F)F)C(=O)NCC(F)(F)F` (centres unmarked) [F54, (Z)—N-(2-Methyl-1-oxo-1-((2,2,2-trifluoroethyl)amino)propan-2-yl)-4-(1,4,4,4-tetrafluoro-3-(3,4,5-trichlorophenyl)but-1-en-1-yl)-2-(trifluoromethyl)benzamide], the pest or weed control at 50 µg/cm2 in experiment [1] and in experiment [2] was 50 to 100% throughout.

In the case of `C[C@@H](NC(=O)c1ccc(/C(F)=C/C(c2cc(Cl)c(Cl)c(Cl)c2)C(F)(F)F)cc1C(F)(F)F)C(=O)NCC(F)F` (stereo partly drawn) [F30, N—((R)-1-((2,2-Difluoroethyl)amino)-1-oxopropan-2-yl)-4-((Z)-1,4,4,4-tetrafluoro-3-(3,4,5-trichlorophenyl)but-1-en-1-yl)-2-(trifluoromethyl)benzamide], the pest or weed control at 50 µg/cm2 in experiment [1] and in experiment [2] was 50 to 100% each time.

For `O=C(NC1(C(=O)CCC(F)(F)F)CC1)c1ccc(/C(F)=C/C(c2cc(Cl)c(Cl)c(Cl)c2)C(F)(F)F)cc1C(F)(F)F` (centres unmarked) [F56, (Z)-4-(1,4,4,4-Tetrafluoro-3-(3,4,5-trichlorophenyl)but-1-en-1-yl)-N-(1-(4,4,4-trifluorobutanoyl)cyclopropyl)-2-(trifluoromethyl)benzamide], the pest or weed control at 50 µg/cm2 in experiment [1] and in experiment [2] was 50 to 100% in each case.

With `C[C@@H](NC(=O)c1ccc(/C(F)=C/C(c2ccc(Br)c(F)c2)C(F)(F)F)cc1C(F)(F)F)C(=O)NCC(F)(F)F` (stereo partly drawn) [F170, 4-((Z)-3-(4-Bromo-3-fluorophenyl)-1,4,4,4-tetrafluorobut-1-en-1-yl)-N—((R)-1-oxo-1-((2,2,2-trifluoroethyl)amino)propan-2-yl)-2-(trifluoromethyl)benzamide], the pest or weed control at 50 µg/cm2 in experiment [1] and in experiment [2] was 50 to 100% throughout.

For `C[C@@H](NC(=O)c1ccc(/C(F)=C/C(c2cc(Cl)c(Cl)c(Cl)c2)C(F)(F)F)cc1C(F)(F)F)C(=O)NC1CC(F)(F)C1` (stereo partly drawn) [F168, N—((R)-1-((3,3-difluorocyclobutyl)amino)-1-oxopropan-2-yl)-4-((Z)-1,4,4,4-tetrafluoro-3-(3,4,5-trichlorophenyl)but-1-en-1-yl)-2-(trifluoromethyl)benzamide], the pest or weed control at 50 µg/cm2 in experiment [1] and in experiment [2] was 50 to 100% throughout.

As for `O=C(NC1(C(=O)NC2CC(F)(F)C2)CC1)c1ccc(/C(F)=C/C(c2cc(Cl)c(Cl)c(Cl)c2)C(F)(F)F)cc1C(F)(F)F` (centres unmarked) [F101, (Z)—N-(1-((3,3-Difluorocyclobutyl)carbamoyl)cyclopropyl)-4-(1,4,4,4-tetrafluoro-3-(3,4,5-trichlorophenyl)but-1-en-1-yl)-2-(trifluoromethyl)benzamide], the pest or weed control at 50 µg/cm2 in experiment [1] and in experiment [2] was 50 to 100% each time.
